Experimental data taken from patent publication US20090269770A1, “METHODS FOR EVALUATION PROGNOSIS AND FOLLOW-UP OF DRUG TREATMENT OF PSYCHIATRIC DISEASES OR DISORDERS” (priority 2008, published 2009).
“And” between values parts separate entries of the source, which are not always exact repeats. Equal values may be shown once. “Also recorded” adds a separate entry of the source.

Legend:
Assay type in all cases: in vivo, human
[1] = tested on: schizophrenic patients; test: Simpson-Angus Scale (SAS) for extrapyramidal side effects; conditions: for Extra-pyramidal side effects score: one line per patient I-VI
Experimental: (§1) Fluvoxamine (100 mg/day) was added in an open study format to the antipsychotic treatment, which remained steady. Clinical state was assessed by psychiatrists using validated rating scales for negative (SANS) and positive (SAPS) symptoms (Silver et al., 2003) prior to fluvoxamine treatment and then weekly until the end of the trial period. Total SANS scores and summary scores for […] blunting, alogia, anhedonia and […] factors were the outcome measures. Extrapyramidal symptoms were assessed with the Simpson-Angus Scale (SAS) for extrapyramidal side effects (Simpson and Angus, 1970). Blood samples were taken at baseline (day 0), before addition of fluvoxamine, after 3 weeks of combined treatment, a time when the initial clinical effect is expected to be seen (Silver et al., 2003), and after 6 weeks of the combined treatment.

[2] = tested on: schizophrenic patients; test: Clinical rating scales for negative (SANS) and positive (SAPS) symptoms; conditions: for SANS total / SAPS total / Affective blunting score / Alogia score / Anhedonia score / Avolition score: one line per patient I-VI
Experimental: (§2) Patients suffering from chronic schizophrenia (DSM IV criteria) with at least 2 years of illness (range 2-17 years) and persistent negative symptoms were chosen from an Israeli mental health center, as shown in Table 1. To qualify for inclusion in the study, these patients were required to be on constant antipsychotic medication for at least 6 months prior to the study and on an unchanged dose for at least 4 weeks before entry.
as §1
The biochemical data were analyzed by one way analysis of variance (ANOVA) followed by Dunnett's test. For each gene, differences between expression after 3 or 6 weeks of treatment ad baseline, were considered significant if they reached a level of significance of p<0.05. Clinical response was assessed with repeated measure ANOVA.

[3] = tested on: PMC from schizophrenic patients; test: GPCR cDNA array (GEArray Q series) of PMC gene expression, fluvoxamine augmentation; set-up: key to Gene expression change CCR5 (X91492), divided by week 0 / Gene expression change CCR7 (L31581), divided by week 0 / Gene expression change CCRL1 (AF110640), divided by week 0 / Gene expression change CRL1 (U79527), divided by week 0 / Gene expression change IL8Rα (L19591), divided by week 0 / Gene expression change RGS7 (BC022009), divided by week 0 / Gene expression change 5-HT2A (X57830), divided by week 0 / Gene expression change 5-HT7 (L21195), divided by week 0 / Gene expression change CCR1 (D10925), divided by week 0: D—down regulation (<0.7); U—up regulation (>1.3); nc—No change; nd—Not detected; conditions: for Gene expression change 5-HT2A (X57830), divided by week 0 / Gene expression change 5-HT7 (L21195), divided by week 0 / Gene expression change CCR1 (D10925), divided by week 0 / Gene expression change CCR5 (X91492), divided by week 0 / Gene expression change CCR7 (L31581), divided by week 0 / Gene expression change CCRL1 (AF110640), divided by week 0 / Gene expression change CRL1 (U79527), divided by week 0 / Gene expression change IL8Rα (L19591), divided by week 0 / Gene expression change RGS7 (BC022009), divided by week 0: PMC, one cell per patient I-VI
Experimental: as §2, §1
Blood samples (40 ml) from patients were collected in EDTA-coated tubes in order to prevent coagulation, and transported in ice to the laboratory for further processing. Each 15 ml of blood was completed to 40 ml with phosphate buffered saline (PBS) and gently mixed. PMC were isolated according to Ficoll protocol (Sigma, USA). In short, after addition of Ficoll reagent, the tubes were centrifuged (400 g, 30 min), and the interphase was transferred to a new tube, mixed with 100 ml PBS and centrifuged (400 g, 10 min). The supernatant was discarded and the pellet containing the PMC was washed 3 times with PBS (400 g, 10 min). TriReagent (Sigma, USA) was added to the pellet and left on ice for 15 min.
[…] chloroform was added to 1 ml of sample in TriReagent and the suspension was centrifuged (12,000 g, 20 min, 4° C.). After precipitation with isopropanol, the RNA pellet was washed twice with 70% ethanol (7,500 g, 10 min), followed by one wash with 96% ethanol (12,000 g, 10 min) and resuspended in diethylpyrocarbonate (DEPC)-treated water. RNA sample concentrations were determined by UV spectrophotometry at 260 nm (average OD260/2801.9-2). RNA purity was determined by the 260/230 and 260/280 ratios. RNA integrity was confirmed using gel (1.2% agarose) electrophoresis by direct visualization of 18S and 28S rRNA bands and densitometric analysis.
In the next step, gene expression profiles were examined with GEArray™ cDNA membranes, consisting of genes related to G protein-coupled receptor (GPCR) pathways (Q series human G protein-coupled receptor gene array II, SuperArray, Bethesda, Md., USA). Each membrane consists of 100 human cDNAs fragments associated with GPCR family, including receptors for dopamine (DA), serotonin (5-HT), acetylcholine and epinephrine; receptors for chemokines; GPCR kinases; Mitogen activated protein kinases; and regulators of G-protein signaling (RGS). Hybridization array analysis was performed according to the manufacturer's (SuperArray, Bethesda, Md.) protocol. Total RNA from each patient was reverse transcribed with biotinylated dUTP (Roche Diagnostics, Mannheim, Germany) and a gene specific primer mix (SuperArray, Bethesda, Md.). The probes were hybridized to the membrane and the array image was recorded using X-ray film. Quantitation of the results and analysis was accomplished using the manufacturer Software Package (SuperArray, Bethesda, Md.). The row values from 4 spotted replicates of a gene were averaged, normalized to the median of all intensity values on array and compared to control values, thereby assessing the relative expression level of a given mRNA. […]

[4] = after 3 weeks or more of the combined treatment
[5] = in at least 4 out of the 6 subjects after 3 weeks or more of the combined treatment

## COCCCC/C(=N\OCCN)c1ccc(C(F)(F)F)cc1 [fluvoxamine]
[1]; 3 W
  Extra-pyramidal side effects score: 0 (5×) and 6
[1]; 6 W
  Extra-pyramidal side effects score: 0 (5×) and 4
[1]; with augmentation treatment, absent in all, except one patient
  Extra pyramidal side effects change: did not change significantly
[2]; 3 W of augmentation treatment
  SANS total: 71 and 49 and 69 and 104 and 91 and 97
  SAPS total: 9 and 7 (2×) and 12 (2×) and 11
[2]; 3 W
  Affective blunting score: 23 and 26 and 19 and 9 and 18 and 27
  Alogia score: 24 and 21 and 13
  Anhedonia score: 14 (2×) and 16 and 11 (2×) and 17
  Avolition score: 16 and 18 and 11 and 8 (2×) and 19
[2]; 6 W of augmentation treatment
  SANS total: 63 and 46 and 60 and 103 and 86 and 98
  SAPS total: 9 and 7 and 6 and 12 (2×) and 10
[2]; 6 W
  Affective blunting score: 30 and 22 and 14
  Alogia score: 21 and 26 (2×) and 16 and 9 and 15
  Anhedonia score: 14 (2×) and 8 and 9 and 12 and 17
  Avolition score: 16 and 18 and 11 and 8 (2×) and 19
[2]; following augmentation-treatment
  SAPS score change: no significant change
[2]; following augmentation-treatment, p<0.001
  mean SANS total score change: significant changes
[2]; following augmentation-treatment, p<0.01
  affective blunting change: significant changes
[2]; following augmentation-treatment, p=0.30
  anhedonia change: trend
[2]; following augmentation-treatment, p=0.75
  avolition change: trend
[3]; [4]
  expression level of CCR5: increase
  transcript encoding 5-HR7: reduced expression level
  transcript encoding 5-HT2A: reduced expression level
  transcript encoding RGS7: reduced expression level
[3]; [5]
  expression level of CCR1: decrease
  expression level of CCRL1: decrease
  expression level of CMKLR1: decrease
  expression level of IL8Rα: decrease
[3]; week 3
  Gene expression change 5-HT2A (X57830), divided by week 0: D (D—down regulation (<0.7)) (4×) and nc
  Gene expression change 5-HT7 (L21195), divided by week 0: D (D—down regulation (<0.7)) (4×) and nc
  Gene expression change CCR1 (D10925), divided by week 0: D (D—down regulation (<0.7)) (3×) and nc
  Gene expression change CCR5 (X91492), divided by week 0: U (U—up regulation (>1.3))
  Gene expression change CCR7 (L31581), divided by week 0: nc (2×) and D (D—down regulation (<0.7)) (3×) and U (U—up regulation (>1.3))
  Gene expression change CCRL1 (AF110640), divided by week 0: nc (3×) and D (D—down regulation (<0.7)) (3×)
  Gene expression change CRL1 (U79527), divided by week 0: D (D—down regulation (<0.7)) (4×) and nc (2×)
  Gene expression change IL8Rα (L19591), divided by week 0: D (D—down regulation (<0.7)) (3×) and nc and U (U—up regulation (>1.3)) (2×)
  Gene expression change RGS7 (BC022009), divided by week 0: D (D—down regulation (<0.7)) (2×) and nc (3×) and U (U—up regulation (>1.3))
[3]; week 6
  Gene expression change 5-HT2A (X57830), divided by week 0: nc and D (D—down regulation (<0.7)) (4×)
  Gene expression change 5-HT7 (L21195), divided by week 0: D (D—down regulation (<0.7)) (4×) and nc
  Gene expression change CCR1 (D10925), divided by week 0: D (D—down regulation (<0.7)); also recorded: U (U—up regulation (>1.3))
  Gene expression change CCR5 (X91492), divided by week 0: U (U—up regulation (>1.3)) and nc (2×) and D (D—down regulation (<0.7))
  Gene expression change CCR7 (L31581), divided by week 0: U (U—up regulation (>1.3)) (3×) and nc (2×) and D (D—down regulation (<0.7))
  Gene expression change CCRL1 (AF110640), divided by week 0: U (U—up regulation (>1.3)) (2×) and nc (2×) and D (D—down regulation (<0.7)) (2×)
  Gene expression change CRL1 (U79527), divided by week 0: D (D—down regulation (<0.7)) (4×) and nc and U (U—up regulation (>1.3))
  Gene expression change IL8Rα (L19591), divided by week 0: D (D—down regulation (<0.7)) (4×) and U (U—up regulation (>1.3)) and nc
  Gene expression change RGS7 (BC022009), divided by week 0: D (D—down regulation (<0.7)) (4×) and nc (2×)
[3]; week 6 compared with week 3
  expression level of CCR7: increased
  expression level of CCRL1: increased
